Here are results for eight compounds from patent US20260042764A1, “COMPOSITIONS AND METHODS FOR INHIBITION OF KRAS” (TheRas, Inc., priority 2022, published 2026).

For experiment [1], the target named is T1, Avi-KRAS WT (1-169) GppNHp/RAF1 RBD-3xFLAG (52-151) (Homo sapiens, UniProt P01116).
T1 construct: Avi-KRAS WT (1-169)
The experiment can be described thus: Raf1-KRAS WT-GppNHP disruption HTRF assay (Biological Example 1). It counts as binding. The gist of the method:
(§1)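 Compound disruption of KRAS-GppNHp/RAF1 RBD binding read by HTRF after two sequential 1 h room-temperature incubations (protein mix, then detection reagents), shaken at 700 rpm. Buffer Tris pH 7.5 with MgCl2, BSA, Tween and 10% DMSO; results given as percent activity relative to DMSO (100%).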

Experiment [2] addresses T2, Avi-KRAS WT (2-169) GTP/RAF1 RBD-3xFLAG (51-131) (Homo sapiens, UniProt P01116).
T2 construct: Avi-KRAS WT (2-169)
The experiment can be described thus: Raf1-KRAS WT-GTP disruption HTRF assay (Biological Example 3). It counts as binding. The conditions noted are these: KRAS WT, GTP-loaded. The procedure, abridged: (§2)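 Compounds were titrated 10-point, 3-fold from 30 μM against preformed KRAS-GTP:RAF1 RBD (51-131) complexes at 50 nM, using KRAS 2-169 as WT, G12C, G12D or G12V. After 1 h at room temperature in Tris pH 7.5 buffer with MgCl2 and 10% DMSO, time-resolved fluorescence was read. Results are percent activity versus DMSO.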

The target of experiment [3] is T3, Avi-KRAS G12D (1-169) GppNHp/RAF1 RBD-3xFLAG (52-151) (Homo sapiens, UniProt P01116, G12D).
T3 construct: Avi-KRAS G12D (1-169)
T3 sequence (P01116 1-169 isoform P01116-2 G12D): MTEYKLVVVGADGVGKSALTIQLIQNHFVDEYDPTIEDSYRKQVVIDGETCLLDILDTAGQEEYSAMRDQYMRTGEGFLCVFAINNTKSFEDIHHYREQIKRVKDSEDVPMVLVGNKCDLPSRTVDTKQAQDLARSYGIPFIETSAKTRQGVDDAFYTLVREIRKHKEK
Description: Raf1-KRAS G12D-GppNHP disruption HTRF assay (Biological Example 1). It counts as binding. The procedure, abridged: as §1

For experiment [4], the system named is SW620 cells (KRAS G12V). The experiment can be described thus: Cell-based pERK HTRF assay in SW620 cell (Biological Example 4). As to conditions: Homo sapiens, SW-620, SW620 (KRAS G12V) cells. The gist of the method:
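SW620 seeded in RPMI/10% FBS, next day dosed 4 h (top 1 μM, half-log, 9 pts, 0.25% DMSO). Lysed, pERK by d2/Eu cryptate HTRF, 4–24 h RT, 615 nm read.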

Experiment [5] addresses T4, Avi-KRAS G12V (1-169) GppNHp/RAF1 RBD-3xFLAG (52-151) (Homo sapiens, UniProt P01116, G12V).
T4 construct: Avi-KRAS G12V (1-169)
Description: Raf1-KRAS G12V-GppNHP disruption HTRF assay (Biological Example 1). It counts as binding. The procedure, abridged:
as §1

For experiment [6], the target named is T5, Avi-KRAS G12V (2-169) GTP/RAF1 RBD-3xFLAG (51-131) (Homo sapiens, UniProt P01116, G12V).
T5 construct: Avi-KRAS G12V (2-169)
T5 sequence (P01116 2-169 isoform P01116-2 G12V): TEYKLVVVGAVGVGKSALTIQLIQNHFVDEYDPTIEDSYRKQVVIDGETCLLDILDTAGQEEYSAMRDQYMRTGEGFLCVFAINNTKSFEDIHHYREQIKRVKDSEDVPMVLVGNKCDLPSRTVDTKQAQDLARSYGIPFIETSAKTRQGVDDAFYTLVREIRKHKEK
Description: Raf1-KRAS G12V-GTP disruption HTRF assay (Biological Example 3). It counts as binding. As to conditions: KRAS G12V, GTP-loaded. The procedure, abridged:
as §2

The target in experiment [7] is T6, Avi-KRAS G12R (1-169) GppNHp/RAF1 RBD-3xFLAG (52-151) (Homo sapiens, UniProt P01116, G12R).
T6 construct: Avi-KRAS G12R (1-169)
T6 sequence (P01116 1-169 isoform P01116-2 G12R): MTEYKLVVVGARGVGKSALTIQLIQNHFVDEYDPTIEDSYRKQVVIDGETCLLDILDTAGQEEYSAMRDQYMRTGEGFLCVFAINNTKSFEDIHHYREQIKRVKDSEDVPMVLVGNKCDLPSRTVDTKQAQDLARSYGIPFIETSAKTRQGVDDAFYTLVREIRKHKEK
The experiment can be described thus: Raf1-KRAS G12R-GppNHP disruption HTRF assay (Biological Example 1). It counts as binding. The gist of the method: as §1

Where [8] appears, read: KRAS WT, GppNHp-loaded, class symbols.
[9] abbreviates: KRAS G12D, GppNHp-loaded, class symbols.
[10] abbreviates: KRAS G12V, GppNHp-loaded, class symbols.
The mark [11] stands for this setting: KRAS G12R, GppNHp-loaded, class symbols.
[12] abbreviates: KRAS WT, GppNHp-loaded, Table 11.
[13] abbreviates: KRAS G12D, GppNHp-loaded, Table 11.
The mark [14] stands for this setting: KRAS G12V, GppNHp-loaded, Table 11.
Setting [15] is: KRAS G12R, GppNHp-loaded, Table 11.

SMILES strings stand for the structures. A value given as a limit tells only on which side of the number the result lay.

T4 sequence (P01116 1-169 isoform P01116-2 G12V): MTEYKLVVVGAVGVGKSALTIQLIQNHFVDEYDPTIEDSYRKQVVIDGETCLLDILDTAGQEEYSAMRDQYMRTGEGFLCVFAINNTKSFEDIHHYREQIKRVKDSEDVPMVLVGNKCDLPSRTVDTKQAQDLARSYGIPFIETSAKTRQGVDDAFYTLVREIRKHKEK
T2 sequence (P01116 2-169 isoform P01116-2): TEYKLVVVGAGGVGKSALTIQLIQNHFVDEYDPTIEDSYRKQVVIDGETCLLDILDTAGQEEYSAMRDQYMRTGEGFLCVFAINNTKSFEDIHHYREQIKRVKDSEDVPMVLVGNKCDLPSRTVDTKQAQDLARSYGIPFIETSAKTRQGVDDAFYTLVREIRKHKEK
T1 sequence (P01116 1-169 isoform P01116-2): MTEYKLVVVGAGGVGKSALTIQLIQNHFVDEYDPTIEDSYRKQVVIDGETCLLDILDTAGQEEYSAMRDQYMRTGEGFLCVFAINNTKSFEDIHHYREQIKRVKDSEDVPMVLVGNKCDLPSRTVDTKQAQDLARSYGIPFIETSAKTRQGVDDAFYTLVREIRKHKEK

Consider `CCN(c1nc(OC[C@@]23CCCN2C[C@H](F)C3)nc2c(F)c(-c3ccc(F)c4sc(N)c(C#N)c34)c(C(F)(F)F)cc12)[C@H]1CCN(C(=O)N2CCN(C(C)=O)CC2)C1` (atropisomer, axis not shown) [Compound 619], for which the IC50 in experiment [1] (setting [8]) was less than 0.1 µM; in experiment [2] it was 0.1 to 1 µM; in experiment [3] (setting [9]) it was less than 0.1 µM; in experiment [4], less than 0.1 µM; in experiment [4] (pERK HTRF, class symbols), less than 0.1 µM; in experiment [5] (setting [10]), less than 0.1 µM. In addition, the IC50 in experiment [6] was 0.1 to 1 µM; in experiment [7] (setting [11]), less than 0.1 µM.

As to `N#Cc1c(N)sc2c(F)ccc(-c3c(C(F)(F)F)cc4c(N5CCNS(=O)(=O)CC5)nc(OC[C@@]56CCCN5C[C@H](F)C6)nc4c3F)c12` [Compound 245], the IC50 in experiment [1] (setting [12]) is less than 0.1 µM; in experiment [2] it was 0.1 to 1 µM; in experiment [3] (setting [13]) it was less than 0.1 µM; in experiment [4], less than 0.1 µM; in experiment [4] (pERK HTRF), less than 0.1 µM; in experiment [5] (setting [14]), 0.1 to 1 µM. In addition, the IC50 is 0.1 to 1 µM in experiment [6] and less than 0.1 µM in experiment [7] (setting [15]).

On to `CCC(=O)N1CC[C@@H](N(CC)c2nc(OC[C@@]34CCCN3C[C@H](F)C4)nc3c(F)c(-c4ccc(F)c5sc(N)c(C#N)c45)c(C(F)(F)F)cc23)C1` [Compound 327], for which the IC50 in experiment [1] (KRAS WT-GppNHp/RAF1 RBD HTRF) is 0.1 to 1 µM; in experiment [2] it was 0.1 to 1 µM; in experiment [3] (KRAS G12D-GppNHp/RAF1 RBD HTRF) it was 0.1 to 1 µM; in experiment [4] it was less than 0.1 µM; in experiment [4] (pERK HTRF) it was less than 0.1 µM; in experiment [5] (KRAS G12V-GppNHp/RAF1 RBD HTRF), 0.1 to 1 µM. Moreover, the IC50 in experiment [6] and in experiment [7] (KRAS G12R-GppNHp/RAF1 RBD HTRF) was 0.1 to 1 µM each time.

Regarding `CCN(c1nc(OC[C@@]23CCCN2C[C@H](F)C3)nc2c(F)c(-c3ccc(F)c4sc(N)c(C#N)c34)c(C(F)(F)F)cc12)[C@H]1C[C@H](C)N(C(=O)[C@@H]2CC2(F)F)C1` (atropisomer, axis not shown) [Compound 751], the IC50 in experiment [1] (setting [8]) was 0.1 to 1 µM; in experiment [3] (setting [9]), less than 0.1 µM; in experiment [4] (pERK HTRF, class symbols) it was less than 0.1 µM; in experiment [5] (setting [10]) it was less than 0.1 µM; in experiment [7] (setting [11]), less than 0.1 µM.

`N#Cc1cnn2c1CN(c1nc(OC[C@@]34CCCN3C[C@H](F)C4)nc3c(F)c(-c4ccc(F)c5sc(N)c(C#N)c45)c(C(F)(F)F)cc13)CC2` [Compound 392]: the IC50 in experiment [1] (KRAS WT-GppNHp/RAF1 RBD HTRF) was 0.1 to 1 µM; in experiment [3] (KRAS G12D-GppNHp/RAF1 RBD HTRF), 0.1 to 1 µM; in experiment [4] (pERK HTRF) it was less than 0.1 µM; in experiment [5] (KRAS G12V-GppNHp/RAF1 RBD HTRF) it was 0.1 to 1 µM; in experiment [7] (KRAS G12R-GppNHp/RAF1 RBD HTRF) it was 0.1 to 1 µM.

Turning to `C[C@@H]1[C@H](N(C)c2nc(OC[C@@]34CCCN3C[C@H](F)C4)nc3c(F)c(-c4ccc(F)c5sc(N)c(C#N)c45)c(C(F)(F)F)cc23)CCN1C(=O)C1CC1` [Compound 258], the IC50 in experiment [1] (setting [12]) was less than 0.1 µM; in experiment [3] (setting [13]) it was less than 0.1 µM; in experiment [4] (pERK HTRF) it was less than 0.1 µM; in experiment [5] (setting [14]), 0.1 to 1 µM; in experiment [7] (setting [15]), less than 0.1 µM.

With `CN(Cc1cccnc1N)c1nc(OC[C@@]23CCCN2C[C@H](F)C3)nc2c(F)c(-c3ccc(F)c4sc(N)c(C#N)c34)c(C(F)(F)F)cc12` [Compound 390], the concentration for half-maximal inhibition (IC50) in experiment [1] (KRAS WT-GppNHp/RAF1 RBD HTRF) is 0.1 to 1 µM; in experiment [3] (KRAS G12D-GppNHp/RAF1 RBD HTRF) it was 0.1 to 1 µM; in experiment [4] (pERK HTRF), less than 0.1 µM; in experiment [5] (KRAS G12V-GppNHp/RAF1 RBD HTRF), less than 0.1 µM; in experiment [7] (KRAS G12R-GppNHp/RAF1 RBD HTRF), 0.1 to 1 µM.

In the case of `CCN(c1nc(OC[C@@]23CCCN2C[C@H](F)C3)nc2c(F)c(-c3ccc(F)c4sc(N)c(C#N)c34)c(C(F)(F)F)cc12)[C@H]1C[C@H](C)N(C(C)=O)C1` [Compound 463], the IC50 in experiment [1] (KRAS WT-GppNHp/RAF1 RBD HTRF), in experiment [3] (KRAS G12D-GppNHp/RAF1 RBD HTRF), in experiment [4] (pERK HTRF), in experiment [5] (KRAS G12V-GppNHp/RAF1 RBD HTRF) and in experiment [7] (KRAS G12R-GppNHp/RAF1 RBD HTRF) was less than 0.1 µM each time.
